From patent publication US20250382268A1, “METHODS AND COMPOSITIONS FOR SELECTIVELY INHIBITING PATHOGENIC MICROBES” (priority 2019, published 2025)
Values after ≈ are worked out from the molar mass of the structure shown. Read-outs that look alike come from different tables or passages of the source.

Tests used:
HepG2 cells = experiment: Cytotoxicity MTT assay in HepG2 cells; type: cell-based; settings: Homo sapiens
Experimental: Additionally, the antimicrobial compounds were analyzed for cytotoxicity. […] We utilized the standard MTT assay (Promega CellTiter 96) and GraphPad Prism 7 software to determine EC50 values for each analogue. Briefly, 20,000 HepG2 cells in 200 μl of the ATCC recommended media were seeded in each well of a 96-well plate with a moisture barrier created in the outermost wells. The cells were allowed to attach overnight at 37° C., and then observed under phase contrast microscopy for proper morphological characteristics. […] Once incubations were complete, the spectrophotometric absorbance of the samples was measured at a wavelength of 595 nm. […] For the HepaRG assay, NoSpin HepaRG™ cells (Lonza, cat #NSHPRG) were thawed and plated with 20,000 cells per well. They were allowed to attach for 4 h (optimal DME profile per Lonza's testing) before dosing following the identical protocol as above.

Burkholderia cenocepacia = experiment: microbe, parasite or virus in culture; type: cell-based
[1] = test system: Burkholderia thailandensis; experiment: microbe, parasite or virus in culture; type: cell-based
Francisella tularensis = experiment: microbe, parasite or virus in culture; type: cell-based; settings: read-out: Francisella tularensis NR-577 MIC, strain NR-577
N. gonorrhoeae = experiment: microbe, parasite or virus in culture; type: cell-based; settings: Neisseria gonorrhoeae
Staphylococcus aureus = experiment: microbe, parasite or virus in culture
[2] = Toxicity study in mice, body weight over 7 days; type: in vivo; settings: 6-week-old Balb/c mice
Description: The vehicle is 40% PEG300 solution in 0.9% NaCl. […] Thus, the compounds are useful for in vivo antimicrobial administration.

[3] = MRSA, read-out: Staphylococcus aureus MIC, MRSA strain HM-467
[4] = MRSA, read-out: Staphylococcus aureus MIC, MRSA strain NK-41886
[5] = MRSA, read-out: Staphylococcus aureus MIC, MRSA strain NR-13533
[6] = MRSA, read-out: Staphylococcus aureus MIC, MRSA strain NR-28983
[7] = MRSA, read-out: Staphylococcus aureus MIC, MRSA strain NR-41875
[8] = MRSA, read-out: Staphylococcus aureus MIC, MRSA strain NR-41876
[9] = MRSA, read-out: Staphylococcus aureus MIC, MRSA strain NR-41877
[10] = MRSA, read-out: Staphylococcus aureus MIC, MRSA strain NR-41878
[11] = read-out: Staphylococcus aureus MIC, VSSA NR-49121

Compound	EC50 (HepG2 cells) [µg/mL]	MIC (Staphylococcus aureus; [3]) [µg/mL]	MIC (Staphylococcus aureus; [4]) [µg/mL]	MIC (Staphylococcus aureus; [5]) [µg/mL]	MIC (Staphylococcus aureus; [6]) [µg/mL]	MIC (Staphylococcus aureus; [7]) [µg/mL]	MIC (Staphylococcus aureus; [8]) [µg/mL]	MIC (Staphylococcus aureus; [9]) [µg/mL]	MIC (Staphylococcus aureus; [10]) [µg/mL]	MIC (Staphylococcus aureus; [11]) [µg/mL]	further results
Oc1ccc(Sc2c[nH]c3ccccc23)cc1 [Compound 156I, 4-((1H-indol-3-yl)thio)phenol]	12.1 (≈ 50.1 µM)										MBC (Burkholderia cenocepacia): 150 µg/mL (≈ 622 µM); MIC (Burkholderia cenocepacia): 50 µg/mL (≈ 207 µM); MBC [1]: 100 µg/mL (≈ 414 µM); MIC [1]: 50 µg/mL (≈ 207 µM)
Brc1ccc(Sc2c[nH]c3ccccc23)cc1 [Compound 156K, 3-((4-bromophenyl)thio)-1H-indole]	27.6 (≈ 90.7 µM)										
Brc1ccc(Oc2c[nH]c3ccccc23)cc1 [Compound 156KC, 3-(4-bromophenoxy)-1H-indole]											MIC (Francisella tularensis): 2 µg/mL (≈ 6.94 µM); MIC (N. gonorrhoeae; read-out: Neisseria gonorrhoeae WHO 901 MIC, strain WHO 901): 8 µg/mL (≈ 27.8 µM); MIC (N. gonorrhoeae; read-out: Neisseria gonorrhoeae WHO 914 MIC, strain WHO 914): 8 µg/mL (≈ 27.8 µM)
Brc1ccc(Sc2c[nH]c3ccc(Br)cc23)cc1 [Compound 172D, 5-bromo-3-((4-bromophenyl)thio)-1H-indole]		12.5 (≈ 32.6 µM)	1.56 (≈ 4.07 µM)	1.56 (≈ 4.07 µM)	1.56 (≈ 4.07 µM)	3.13 (≈ 8.17 µM)	1.56 (≈ 4.07 µM)	3.13 (≈ 8.17 µM)	1.56 (≈ 4.07 µM)	1.56 (≈ 4.07 µM)	
COc1ccc2[nH]cc(Sc3ccc(Br)cc3)c2c1 [Compound 172E, 3-((4-bromophenyl)thio)-5-methoxy-1H-indole]	23.3 (≈ 69.7 µM)										
Oc1ccccc1Sc1c[nH]c2ccc(Br)cc12 [Compound 174AI, 2-((5-bromo-1H-indol-3-yl)thio)phenol]	27.4 (≈ 85.6 µM)	16 (≈ 50 µM)	8 (≈ 25 µM)	8 (≈ 25 µM)	8 (≈ 25 µM)	8 (≈ 25 µM)	8 (≈ 25 µM)	8 (≈ 25 µM)	8 (≈ 25 µM)	8 (≈ 25 µM)	toxicity by body weight [2]: did not have significant toxicity
Brc1ccc2[nH]cc(Sc3c[nH]c4ccccc34)c2c1 [Compound 174AL, 3-((1H-indol-3-yl)thio)-5-bromo-1H-indole]	26.1 (≈ 76 µM)										
OCc1ccccc1Sc1c[nH]c2ccc(Br)cc12 [Compound 174AT, (2-((5-bromo-1H-indol-3-yl)thio)phenyl)methanol]		32 (≈ 95.7 µM)	16 (≈ 47.9 µM)	16 (≈ 47.9 µM)	16 (≈ 47.9 µM)	16 (≈ 47.9 µM)	16 (≈ 47.9 µM)	16 (≈ 47.9 µM)	16 (≈ 47.9 µM)	16 (≈ 47.9 µM)	
Fc1ccccc1Sc1c[nH]c2ccc(Br)cc12 [Compound 174AU, 5-bromo-3-((2-fluorophenyl)thio)-1H-indole]		2 (≈ 6.21 µM)	2 (≈ 6.21 µM)	2 (≈ 6.21 µM)	2 (≈ 6.21 µM)	2 (≈ 6.21 µM)	2 (≈ 6.21 µM)	4 (≈ 12.4 µM)	2 (≈ 6.21 µM)	4 (≈ 12.4 µM)	toxicity by body weight [2]: did not have significant toxicity
FC(F)(F)c1ccccc1Sc1c[nH]c2ccc(Br)cc12 [Compound 174AV, 5-bromo-3-((2-(trifluoromethyl)phenyl)thio)-1H-indole]		2 (≈ 5.37 µM)	2 (≈ 5.37 µM)	1 (≈ 2.69 µM)	1 (≈ 2.69 µM)	1 (≈ 2.69 µM)	2 (≈ 5.37 µM)	2 (≈ 5.37 µM)	2 (≈ 5.37 µM)	2 (≈ 5.37 µM)	
FC(F)(F)c1ccc2[nH]cc(Sc3ccccc3Br)c2c1 [Compound 174AX, 3-((2-bromophenyl)thio)-5-(trifluoromethyl)-1H-indole]		2 (≈ 5.37 µM)	2 (≈ 5.37 µM)	1 (≈ 2.69 µM)	2 (≈ 5.37 µM)	1 (≈ 2.69 µM)	2 (≈ 5.37 µM)	2 (≈ 5.37 µM)	1 (≈ 2.69 µM)	1 (≈ 2.69 µM)	
Cc1ccccc1Sc1c[nH]c2ccc(Br)cc12 [Compound 174AY, 5-bromo-3-(o-tolylthio)-1H-indole]		4 (≈ 12.6 µM)	4 (≈ 12.6 µM)	4 (≈ 12.6 µM)	4 (≈ 12.6 µM)	4 (≈ 12.6 µM)	2 (≈ 6.28 µM)	2 (≈ 6.28 µM)	2 (≈ 6.28 µM)	2 (≈ 6.28 µM)	
Cc1[nH]c2ccc(Br)cc2c1Sc1ccccc1Br [Compound 174AZ, 5-bromo-3-((2-bromophenyl)thio)-2-methyl-1H-indole]	25.8 (≈ 65 µM)					4 (≈ 10.1 µM)	2 (≈ 5.04 µM)			2 (≈ 5.04 µM)	toxicity by body weight [2]: did not have significant toxicity
Clc1ccc2[nH]cc(Sc3ccc(Br)cc3)c2c1 [Compound 174C, 3-((4-bromophenyl)thio)-5-chloro-1H-indole]	25.4 (≈ 75 µM)										
Brc1ccc(Sc2c[nH]c3cccc(Br)c23)cc1 [Compound 174D, 4-bromo-3-((4-bromophenyl)thio)-1H-indole]	23.2 (≈ 60.6 µM)										
Fc1ccc2[nH]cc(Sc3ccc(Br)cc3)c2c1 [Compound 174E, 3-((4-bromophenyl)thio)-5-fluoro-1H-indole]	23.6 (≈ 73.2 µM)										
